# Data as given in patent US10251845B2, “Fatty acid cysteamine conjugates and their use as activators of autophagy” (Catabasis Pharmaceuticals, Inc., priority 2014, dated 2019).
# Legend:
# [1] = tested on: Tissue Inhibitor of Metalloproteinase 2 (TIMP-2); assay: ELISA of TIMP-2 in conditioned media of lung fibroblasts; format: cell-based, human; conditions: NLF, LL29 or LL97A cells, 25 μM, in the presence of TGFβ
# Source text: Normal human lung fibroblasts (ScienCell Research Laboratory 3420), lung fibroblasts from idiopathic pulmonary fibrosis (IPF) patients LL29 (AnHa) (ATCC) and LL97A (ALMy) (ATCC) were maintained in DMEM F12 (Gibco 10565) supplemented with 15% fetal bovine serum (FBS) (Gibco 10437-028) plus Pen-Strep (1%) (Gibco 15140-122). Cells were split every 3 to 4 days at 1:2/1:3 dilution each time. The day before the experiment, cells were trypsinized using Trypsin-EDTA (0.05%) (Gibco 25300-054) and plated on 24-well […] at 1×10^5 cells per well.
# (§1) Compounds II-3 and I-1 were first solubilized in 100% DMSO as 50 mM solution, and then diluted 1 to 200 in 1% BSA as a 10× stock solution of […], and series stock dilution (1 to 2 dilution) were carried out as needed. […] The total RNA was harvested, and the relative mRNA expression levels were assessed via RT-PCR with HPRT as the internal control. […] Significance was determined by student's t-test in comparison to control.
# Conditioned media were collected at the end of the experiment. The levels of Matrix Metalloproteinase 2 (MMP-2) (R&D System MMP200) and human Tissue Inhibitor of Metalloproteinase 2 (TIMP-2) (R&D System DTM200) were measured according to the manufacturer's instruction. […] The ELISA was measured on a Victor×5 multilabel plate reader (PerkinElmer) at an absorbance of 450 nm with background correction at 550 nm. […]
# [2] = tested on: TNF-α; assay: RT-PCR of TNF-α mRNA in LPS-stimulated THP-1 cells; format: cell-based; conditions: 25 μM, LPS stimulation
# Procedure: THP-1 cells were obtained from ATCC® TIB202. THP-1 cells were maintained in RPMI1640 (Gibco® RPMI 1640) supplemented with 10% fetal bovine serum. DMEM (#11095) and fetal bovine serum (low endotoxin grade) (#10437) was obtained from Invitrogen.
# as §1, with “needed. The 10× stock solution were added to the cell media and cells were incubated for 24 hours at 37° C. For LPS stimulation in THP-1 cells, compounds were added to the cell media for 6 hours at and at the end of 4 hours, 50 μg/ml final concentration of LPS (Sigma L3024) was added and cells were incubated for 2 hours.” for “needed.”
# Total RNA was collected using RNeasy Plus Mini Kit (Qiagen #74136) and cDNA generated using SuperScriptIII (Invitrogen #18080-044) with random hexamers following the manufacturer's protocol. Relative mRNA expression levels were determined using TaqMan probes (Applied Biosystems, using the recommended best primer pairs) with HPRT (hypoxanthine phosphoryltransferase) as the internal control. […]
compound,measurement,setting,value
"CC/C=C\C/C=C\C/C=C\C/C=C\C/C=C\C/C=C\CCC(=O)NCCSSC(C)(C)CNC(=O)c1cccnc1 [II-3, N-(2-((2-((4Z,7Z,10Z,13Z,16Z,19Z)-docosa-4,7,10,13,16,19-hexaenamido)ethyl)disulfanyl)-2-methylpropyl)nicotinamide]",TIMP-2 level in conditioned media,[1],marked reduction
same,TNF-α mRNA level,[2],marked reduction
